Common to all, as to type: physicochemical
A short description of data set [1]: Solubility in water, gravimetric method. As to the method: Solubility was measured using the gravimetric method by separately suspending Form I and Form II in water with stirring at room temperature for 6 hours.
Data set [2] is described as follows: Assessment of stability in water (slurry at 25° C., form identified by XRPD). The note with it: slurried in water at 25° C.; for Stability in water (overall summary): summary of Tables A-D; for Stability in water (overall summary) / Form after 2 days / Form after 4 days: hydrochloride; for Form after 2 days / Form after 4 days: Table A. As to the method:
Form I, Form II or a mixture thereof was slurried in water at 25° C. to assess stability. […] XRPD was used to identify crystalline form.

Data set [3] is described as follows: Conversion of Form II to Form I by slurrying in t-butylmethyl ether (XRPD). Conditions: slurried in t-butylmethyl ether for 4 days at room temperature. An excerpt:
Form II was slurried in t-butylmethyl ether for 4 days at room temperature. The resulting solid was characterized by XRPD as Form I.

The nature of data set [4]: Conversion of Form I to Form II by slurrying in water at 25° C. (XRPD). Conditions: slurried in water at 25° C. with stirring. As to the method:
Form I was slurried in water for 1 day and for 5 days at 25° C. with stirring.

“And” between values parts separate entries of the source, which are not always exact repeats. Identical values can stand only once. Counter-ions that a name gives are not always drawn.

The values that follow come from patent publication US20060252825A1, “Crystal forms of {[(2r)-7-(2,6-dichlorophenyl)-5-fluoro-2,3-dihydro-1-benzofuran-2-yl]methyl}amine hydrochloride” (Wyeth, priority 2005, published 2006).

In general, solubility refers to the dissolved amount per volume that the medium holds. Higher therefore signals a readily soluble substance.

Regarding `NC[C@H]1Cc2cc(F)cc(-c3c(Cl)cccc3Cl)c2O1` [Form II, {[(2R)-7-(2,6-dichlorophenyl)-5-fluoro-2,3-dihydro-1-benzofuran-2-yl]methyl}amine hydrochloride], in data set [1] (inferred from water solubility of Forms I and II, hydrochloride), the “Relative thermodynamic stability based on solubility data” value was “thermodynamically more stable in water than Form I”. The Solubility-Water in data set [1] (suspended in water with stirring at room temperature for 6 hours, gravimetric, hydrochloride) is 51 mg/mL and 50 mg/mL. Further, the “Stability in water (overall summary)” value in data set [2] is recorded as “stable in water”. In addition, the Resulting solid form result in data set [3] was “Form I”.

On to `NC[C@H]1Cc2cc(F)cc(-c3c(Cl)cccc3Cl)c2O1` [Form I, {[(2R)-7-(2,6-dichlorophenyl)-5-fluoro-2,3-dihydro-1-benzofuran-2-yl]methyl}amine hydrochloride], for which the solubility at 6 h in data set [1] (water, thermodynamic from solid, suspended in water with stirring at room temperature for 6 hours, gravimetric) stood at 67 mg/mL. In data set [2] (XRPD), the “Form after 2 days” value is “I, trace II” and the “Form after 4 days” value is “Increased amount of II”. For the same molecule, the “Form after 3 days” value in data set [2] (Table C, XRPD) is recorded as “mainly II, some I”. Moreover, in data set [2], the “Stability in water (overall summary)” value is “converted to Form II under most of the conditions tested”. Besides, in data set [4] (1 day), the “Crystalline form after 1 day” value is given as “substantial conversion of the solid from Form I to Form II”. For the same molecule, the “Crystalline form after 5 days” value in data set [4] (5 days) is listed as “no detectable amount of Form I”.

With `NC[C@H]1Cc2cc(F)cc(-c3c(Cl)cccc3Cl)c2O1` [50:50 I:II, {[(2R)-7-(2,6-dichlorophenyl)-5-fluoro-2,3-dihydro-1-benzofuran-2-yl]methyl}amine hydrochloride], the “Form after 2 days” value in data set [2] (XRPD) was “trace I”.

In the case of `NC[C@H]1Cc2cc(F)cc(-c3c(Cl)cccc3Cl)c2O1` [I seeded with II, {[(2R)-7-(2,6-dichlorophenyl)-5-fluoro-2,3-dihydro-1-benzofuran-2-yl]methyl}amine hydrochloride], in data set [2] (XRPD), the “Form after 2 days” value is “increased amount of II” and the “Form after 4 days” value is given as “increased amount of II”.
